In brackets after ≈: the same amount, converted by molar mass.
Assay: Solubility of guanidine compounds in water, OECD Guideline 105 flask method
Format: physicochemical

Row | Solubility in water [mM] | solubility (water, thermodynamic from solid) [mM] | Structure (SMILES)
1 | 15 (≈ 2870 µg/mL) |  | Cc1ccccc1NC(=N)NC(=N)N [o-Tolylbiguanide]
2 |  | 50 (≈ 3700 µg/mL) | N=C(N)NN [aminoguanidine]
